Key:
human CCR2 = target: T1, human CCR2 (Homo sapiens, UniProt P41597); test: Functional Ca2+ release test (B-1); type: cell-based; details: Chem-1 cell line transfected with human CCR2, inhibition of MCP-1 effect, MCP-1 at EC50 (about 5 nM), Fluo-4
T1 construct: host or cells: Chem-1 cell line
T1 sequence (P41597 1-360 isoform P41597-2): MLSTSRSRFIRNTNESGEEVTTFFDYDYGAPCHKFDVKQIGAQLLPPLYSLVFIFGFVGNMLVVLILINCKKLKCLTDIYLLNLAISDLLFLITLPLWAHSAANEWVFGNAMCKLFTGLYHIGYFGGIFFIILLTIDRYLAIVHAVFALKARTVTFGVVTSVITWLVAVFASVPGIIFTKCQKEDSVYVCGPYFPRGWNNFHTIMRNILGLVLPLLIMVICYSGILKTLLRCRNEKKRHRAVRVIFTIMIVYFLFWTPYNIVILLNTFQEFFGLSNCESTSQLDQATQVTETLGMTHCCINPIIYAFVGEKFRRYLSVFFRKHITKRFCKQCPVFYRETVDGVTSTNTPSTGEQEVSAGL
Protocol: The antagonistic action of test substances on CCR2 was determined in a functional Ca^2+ release test. Binding of CCL2/MCP-1 to CCR2 leads to a change in the conformation of the receptor resulting in Gi/Gq protein activation and intracellular signal cascade. This involves, inter alia, an intracellular Ca^2+ release. The test cell used was a Chem-1 cell line transfected with human CCR2 (ChemiSCREEN™ CCR2B Calcium-Optimized FLIPR Cell Line, Merck Millipore).
(§1) The test substances were dissolved in dimethyl sulphoxide (DMSO) at a concentration of 10 mM and serially diluted with DMSO in steps of 1:3.16 for a 10-point dose/activity analysis. According to the desired test concentrations, the substances were pre-diluted in Tyrode with 2 mM CaCl2 and 0.05% BSA.
The cells, cultivated in DMEM high glucose [supplemented with 10% FCS, 1 mM pyruvate, 15 mM HEPES, 500 μg/ml geniticin and non-essential amino acids (NEAA)], were sown at 5000 cells/25 μl in 384 well, μCLEAR/black cell culture plates from Greiner (#781092) and incubated at 37° C. for 24 h. The sowing medium consisted of DMEM high glucose [supplemented with 5% FCS, 1 mM pyruvate, 15 mM HEPES, 50 U/ml penicillin, 50 μg/ml streptomycin and non-essential amino acids (NEAA)]. The medium was then removed and the cells were charged for 60 min at 37° C. with Fluo-4 dye [25 μl Tyrode with 3 μM Fluo-4 AM (1 mM DMSO stock solution), 0.4 mg/ml Brilliant Black, 2.5 mM probenicid, 0.03% Pluronic F-127]. The cells were pre-incubated for 10 min with 10 μl of the test substances diluted in buffer, and 20 μl of agonist solution (MCP-1 in Tyrode with 0.05% BSA) were then added. MCP-1 was employed at the concentration which corresponds to the EC50 which had been determined in a preliminary test (usually about 5 nM). Ca^2+ release was monitored over a period of 120 s in 1 s increments in a proprietary fluorescence imaging reader. The molar concentration of the test substance which caused 50% inhibition of the MCP-1 effect (IC50) was determined using a 4-parameter logistic function (Hill function).

murine CCR2 = target: T2, murine CCR2 (Mus musculus, UniProt P51683); test: Functional β-arrestin recruiting test with human MCP-1 (B-2a); type: cell-based; details: U2OS β-arrestin cell line transfected with murine CCR2; agonist human MCP-1 at EC50 (about 3 nM)
T2 construct: host or cells: U2OS β-arrestin cell line
T2 sequence (P51683 whole entry): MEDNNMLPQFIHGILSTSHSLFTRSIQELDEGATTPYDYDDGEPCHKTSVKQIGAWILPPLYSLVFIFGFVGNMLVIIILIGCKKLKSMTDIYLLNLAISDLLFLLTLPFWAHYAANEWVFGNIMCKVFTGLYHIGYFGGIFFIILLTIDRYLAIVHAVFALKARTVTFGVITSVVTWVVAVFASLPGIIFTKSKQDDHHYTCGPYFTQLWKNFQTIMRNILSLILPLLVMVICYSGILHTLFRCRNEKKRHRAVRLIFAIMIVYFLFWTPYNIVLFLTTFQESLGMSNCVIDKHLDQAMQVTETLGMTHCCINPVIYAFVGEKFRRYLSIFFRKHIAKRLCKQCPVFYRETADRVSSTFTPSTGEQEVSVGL
Protocol: The antagonistic action of test substances on CCR2 was determined in a β-arrestin test. The PathHunter β-arrestin GPCR test system (DiscoveRx Corporation, Ltd.) is a cell-based functional method for detecting binding of β-arrestin to an activated receptor. The molecular basis is a β-galactosidase complementation measured by the enzymatic conversion of a chemiluminescent substrate. The test cell used was a U2OS β-arrestin cell line transfected with murine CCR2 (93-0543C3, DiscoveRx Corporation, Ltd.).
as §1
The cells, cultivated in MEM Eagle (supplemented with 10% FCS, 50 U/ml of penicillin, 50 μg/ml of streptomycin, 250 μg/ml of hygromycin and 500 μg/ml of geniticin), were sown at 2000 cells/25 μl in 384 well, μCLEAR/black cell culture plates from Greiner (#781092) and incubated at 37° C. for 24 h. The sowing medium consisted of Opti-MEM (supplemented with 1% FCS, 50 U/ml of penicillin and 50 μg/ml of streptomycin). The cells were pre-incubated for 10 min with 10 μl of the test substances diluted in buffer, and 10 μl of agonist solution [human MCP-1 (PeproTech, #300-04) in Tyrode with 0.05% BSA] were then added. The human MCP-1 was employed at the concentration which corresponds to the EC50 which had been determined in a preliminary test (usually about 3 nM). After 90 min of incubation at 37° C., the solution was removed, and recruitment of β-arrestin to CCR2 was detected with the aid of the PathHunter detection reagent (93-001, DiscoveRx Corporation, Ltd.) according to the instructions of the manufacturer. Luminescence was measured after an incubation time of 60 min using a proprietary luminescence imaging measuring instrument. The molar concentration of the test substance which caused 50% inhibition of the MCP-1 effect (IC50) was determined using a 4-parameter logistic function (Hill function).

Compound | IC50 (human CCR2) [µM] | IC50 (murine CCR2) [µM]
O=c1[nH]c(C2CC2)nc(C(F)(F)F)c1Cc1ccc(Cl)c(C(F)(F)F)c1 [Example 27, 5-[4-chloro-3-(trifluoromethyl)benzyl]-2-cyclopropyl-6-(trifluoromethyl)pyrimidin-4(3H)-one] | 0.063 | 0.36
Nc1nc(C(F)(F)F)c(Sc2ccc(Cl)c(C(F)(F)F)c2)c(=O)[nH]1 [Example 17, 2-amino-5-{[4-chloro-3-(trifluoromethyl)phenyl]sulphanyl}-6-(trifluoromethyl)pyrimidin-4(3H)-one] | 0.0041 | 0.16
Nc1nc(C(F)(F)F)c(Oc2ccc(F)c(C(F)(F)F)c2)c(=O)[nH]1 [Example 6, 2-amino-5-[4-fluoro-3-(trifluoromethyl)phenoxy]-6-(trifluoromethyl)pyrimidin-4(3H)-one] | 0.0054 | 0.15
Cc1nc(C(F)(F)F)c(Cc2ccc(Cl)c(Cl)c2)c(=O)[nH]1 [Example 18, 5-(3,4-Dichlorobenzyl)-2-methyl-6-(trifluoromethyl)pyrimidin-4(3H)-one] | 0.033 | 0.37
Nc1nc(C(F)(F)F)c(Oc2cccc(Cl)c2)c(=O)[nH]1 [Example 9, 2-amino-5-(3-chlorophenoxy)-6-(trifluoromethyl)pyrimidin-4(3H)-one] | 0.038 | 0.45
CCc1nc(C(F)(F)F)c(Cc2cccc(C(F)(F)F)c2)c(=O)[nH]1 [Example 20, 2-ethyl-6-(trifluoromethyl)-5-[3-(trifluoromethyl)benzyl]pyrimidin-4(3H)-one] | 0.3 | 1.2
Nc1nc(C(F)(F)F)c(Sc2ccc(Cl)cc2)c(=O)[nH]1 [Example 16, 2-amino-5-[(4-chlorophenyl)sulphanyl]-6-(trifluoromethyl)pyrimidin-4(3H)-one] | 0.031 | 0.64
CCCCc1nc(C(F)(F)F)c(Cc2ccc(Cl)c(Cl)c2)c(=O)[nH]1 [Example 22, 2-butyl-5-(3,4-dichlorobenzyl)-6-(trifluoromethyl)pyrimidin-4(3H)-one] | 0.11 | 0.74
Nc1nc(C(F)(F)F)c(Cc2ccc(F)c(Cl)c2)c(=O)[nH]1 [Example 7, 2-amino-5-(3-chloro-4-fluorobenzyl)-6-(trifluoromethyl)pyrimidin-4(3H)-one] | 0.011 | 0.3
CCc1nc(C(F)(F)F)c(Cc2ccc(Cl)c(C(F)(F)F)c2)c(=O)[nH]1 [Example 26, 5-[4-chloro-3-(trifluoromethyl)benzyl]-2-ethyl-6-(trifluoromethyl)pyrimidin-4(3H)-one] | 0.031 | 0.24
Cc1ccc(Cc2c(C(F)(F)F)nc(N)[nH]c2=O)cc1Cl [Example 11, 2-amino-5-(3-chloro-4-methylbenzyl)-6-(trifluoromethyl)pyrimidin-4(3H)-one] | 0.042 | 0.56
O=c1[nH]c(C2CC2)nc(C(F)(F)F)c1Cc1cccc(Cl)c1 [Example 21, 5-(3-chlorobenzyl)-2-cyclopropyl-6-(trifluoromethyl)pyrimidin-4(3H)-one] | 0.23 | 0.59
Nc1nc(C(F)(F)F)c(Oc2ccc(Cl)c(F)c2)c(=O)[nH]1 [Example 5, 2-amino-5-(4-chloro-3-fluorophenoxy)-6-(trifluoromethyl)pyrimidin-4(3H)-one] | 0.0087 | 0.21
CCc1nc(C(F)(F)F)c(Cc2ccc(F)c(Cl)c2)c(=O)[nH]1 [Example 28, 5-(3-chloro-4-fluorobenzyl)-2-ethyl-6-(trifluoromethyl)pyrimidin-4(3H)-one] | 0.044 | 0.29
Nc1nc(C(F)(F)F)c(Oc2ccc(F)c(Cl)c2)c(=O)[nH]1 [Example 4, 2-amino-5-(3-chloro-4-fluorophenoxy)-6-(trifluoromethyl)pyrimidin-4(3H)-one] | 0.0065 | 0.22
Nc1nc(C(F)(F)F)c(Sc2ccc(Cl)c(Cl)c2)c(=O)[nH]1 [Example 15, 2-Amino-5-[(3,4-dichlorophenyl)sulphanyl]-6-(trifluoromethyl)pyrimidin-4(3H)-one] | 0.0023 | 0.13

Further lines, results first:

IC50 (human CCR2) [µM] | IC50 (murine CCR2) [µM] | Compound
0.065 | 0.46 | NC(=O)Cc1nc(C(F)(F)F)c(Cc2ccc(Cl)c(Cl)c2)c(=O)[nH]1 [Example 50]
0.11 | 1.6 | NC(=O)Cc1nc(C(F)(F)F)c(Oc2ccc(F)c(Cl)c2)c(=O)[nH]1 [Example 36]
0.091 | 0.38 | NC(=O)Cc1nc(C(F)(F)F)c(Oc2ccc(F)c(C(F)(F)F)c2)c(=O)[nH]1 [Example 49]
0.16 | 1.8 | NC(=O)Cc1nc(C(F)(F)F)c(Oc2ccc(Cl)c(F)c2)c(=O)[nH]1 [Example 39]
0.07 | 0.62 | O=c1[nH]c(CO)nc(C(F)(F)F)c1Oc1ccc(F)c(F)c1 [Example 53]
0.1 | 0.55 | O=c1[nH]c(C2CC2)nc(C(F)(F)F)c1Cc1ccc(Cl)c(Cl)c1 [Example 30, 2-cyclopropyl-5-(3,4-dichlorobenzyl)-6-(trifluoromethyl)pyrimidin-4(3H)-one]
0.01 | 0.14 | O=c1[nH]c(CO)nc(C(F)(F)F)c1Oc1cccc(Cl)c1 [Example 54]
0.055 | 1 | CN(C)c1nc(C(F)(F)F)c(Oc2ccc(Cl)c(Cl)c2)c(=O)[nH]1 [Example 67]
0.15 | 3.7 | NC(=O)Cc1nc(C(F)(F)F)c(Cc2ccc(C(F)(F)F)c(Cl)c2)c(=O)[nH]1 [Example 35, 2-{5-[3-Chloro-4-(trifluoromethyl)benzyl]-6-oxo-4-(trifluoromethyl)-1,6-dihydropyrimidin-2-yl}acetamide]
0.27 | 0.88 | NC(=O)Cc1nc(C(F)(F)F)c(Cc2cccc(Cl)c2)c(=O)[nH]1 [Example 43]
0.0062 | 0.12 | O=c1[nH]c(CO)nc(C(F)(F)F)c1Oc1ccc(Cl)c(F)c1 [Example 55]
0.014 | 0.23 | O=c1[nH]c(CO)nc(C(F)(F)F)c1Cc1ccc(Cl)c(Cl)c1 [Example 51, 5-(3,4-Dichlorobenzyl)-2-(hydroxymethyl)-6-(trifluoromethyl)pyrimidin-4(3H)-one]
0.031 | 0.3 | NC(=O)Cc1nc(C(F)(F)F)c(Cc2ccc(Cl)c(C(F)(F)F)c2)c(=O)[nH]1 [Example 48]
0.32 | 3.3 | NC(=O)Cc1nc(C(F)(F)F)c(Oc2cccc(Cl)c2)c(=O)[nH]1 [Example 38]

Reference: patent US20160221965A1, “DISUBSTITUTED TRIFLUOROMETHYL PYRIMIDINONES AND THEIR USE” (BAYER PHARMA AKTIENGESELLSCHAFT, priority 2013, published 2016)
